Data from patent US9090632B2, “Bicyclic oxazole and thiazole compounds and their use as allosteric modulators of mGluR5 receptors” (Vanderbilt University, priority 2010, dated 2015).

Target: human mGluR5 (Homo sapiens, UniProt P41594)
Assay: Cell-based functional Ca2+ mobilization assay, potentiation of glutamate EC20 response (H10H cell-line)
Details: H10H cell-line expressing recombinant human mGluR5; for Emax (%) / Emax: in presence of glutamate EC20, normalized to maximal glutamate response; for pEC50 / EC50: potentiation in presence of glutamate EC20
Description: Human embryonic kidney (HEK) cells transfected with rat mGluR5 were plated in clear bottom assay plates for assay in a Functional Drug Screening System (FDSS). In the alternative assay, HEK cells transfected with human mGluR5 were plated for assay in the FDSS. In some cases the HEK cells transfected with human mGluR5 are the H10H cell line. Alternatively, the HEK cells transfected with human mGluR5 are the H12H cell line. […] The cells were loaded with a Ca^2+-sensitive fluorescent dye (e.g., Fluo-4), and the plates were washed and placed in the FDSS instrument. After establishment of a fluorescence baseline for about three seconds, the compounds of the present invention were added to the cells, and the response in cells was measured. Five minutes later, an mGluR5 agonist (e.g., glutamate, 3,5-dihydroxyphenylglycine, or quisqualate) was added to the cells, and the response of the cells was measured. Potentiation of the agonist response of mGluR5 by the compounds in the present invention was observed as an increase in response to non-maximal concentrations of agonist (here, glutamate) in the presence of compound compared to the response to agonist in the absence of compound.
The above described assay can be operated in two modes. In the first mode, a range of concentrations of the present compounds were added to cells, followed by a single fixed concentration of agonist. If a compound acted as a potentiator, an EC50 value for potentiation and a maximum extent of potentiation by the compound at this concentration of agonist was determined by non-linear curve fitting. In the second mode, several fixed concentrations of the present compounds were added to various wells on a plate, followed by a range of concentrations of agonist for each concentration of present compound; the EC50 values for the agonist at each concentration of compound were determined by non-linear curve fitting. A decrease in the EC50 value of the agonist with increasing concentrations of the present compounds (a leftward shift of the agonist concentration-response curve) is an indication of the degree of mGluR5 potentiation at a given concentration of the present compound. An increase in the EC50 value of the agonist with increasing concentrations of the present compounds (a rightward shift of the agonist concentration-response curve) is an indication of the degree of mGluR5 antagonism at a given concentration of the present compound. The second mode also indicates whether the present compounds also affect the maximum response to mGluR5 to agonists.
Human mGluR5a cDNA in pCMV6-XL6 mammalian expression plasmid was purchased from OriGene Technologies, Inc. (catalogue number SC326357) and subcloned into pcDNA3.1(−). Human embryonic kidney (HEK) 293A cells were then transfected with human mGluR5a pcDNA3.1(−) using LipofectAmine 2000 (Invitrogen) and monoclones were selected and tested for functional response using a Ca^2+ mobilization assay. Monoclones were named for the species (“H” for human) plus the location on the plate (e.g. “10H”).
HEK cells transfected with the human mGluR5a receptor were plated at 15,000 cells/well in clear-bottomed poly-D-lysine-coated assay plates (BD Falcon) in glutamate-glutamine-free growth medium and incubated overnight at 37° C. and 5% CO2. The cell-line used to obtain the data reported herein was the H10H cell-line expressing the human mGluR5 receptor. Although the H10H cell-line was used to obtain the data shown herein, the H12H cell-line expressing the human mGluR5 receptor can also be used in these assays. The following day, the growth medium was removed and the cells were washed with assay buffer containing 1× Hank's balanced salt solution (Invitrogen, Carlsbad, Calif.), 20 mM HEPES, 2.5 mM probenecid, pH 7.4 and left with 20 μL of this reagent. Following this step, the cells were loaded with calcium indicator dye, fluo-4 AM, to a final concentration of 2 μM and incubated for 40-45 min at 37° C. […]

Sequence of human mGluR5 (P41594 21-1180 isoform P41594-2 limits assumed): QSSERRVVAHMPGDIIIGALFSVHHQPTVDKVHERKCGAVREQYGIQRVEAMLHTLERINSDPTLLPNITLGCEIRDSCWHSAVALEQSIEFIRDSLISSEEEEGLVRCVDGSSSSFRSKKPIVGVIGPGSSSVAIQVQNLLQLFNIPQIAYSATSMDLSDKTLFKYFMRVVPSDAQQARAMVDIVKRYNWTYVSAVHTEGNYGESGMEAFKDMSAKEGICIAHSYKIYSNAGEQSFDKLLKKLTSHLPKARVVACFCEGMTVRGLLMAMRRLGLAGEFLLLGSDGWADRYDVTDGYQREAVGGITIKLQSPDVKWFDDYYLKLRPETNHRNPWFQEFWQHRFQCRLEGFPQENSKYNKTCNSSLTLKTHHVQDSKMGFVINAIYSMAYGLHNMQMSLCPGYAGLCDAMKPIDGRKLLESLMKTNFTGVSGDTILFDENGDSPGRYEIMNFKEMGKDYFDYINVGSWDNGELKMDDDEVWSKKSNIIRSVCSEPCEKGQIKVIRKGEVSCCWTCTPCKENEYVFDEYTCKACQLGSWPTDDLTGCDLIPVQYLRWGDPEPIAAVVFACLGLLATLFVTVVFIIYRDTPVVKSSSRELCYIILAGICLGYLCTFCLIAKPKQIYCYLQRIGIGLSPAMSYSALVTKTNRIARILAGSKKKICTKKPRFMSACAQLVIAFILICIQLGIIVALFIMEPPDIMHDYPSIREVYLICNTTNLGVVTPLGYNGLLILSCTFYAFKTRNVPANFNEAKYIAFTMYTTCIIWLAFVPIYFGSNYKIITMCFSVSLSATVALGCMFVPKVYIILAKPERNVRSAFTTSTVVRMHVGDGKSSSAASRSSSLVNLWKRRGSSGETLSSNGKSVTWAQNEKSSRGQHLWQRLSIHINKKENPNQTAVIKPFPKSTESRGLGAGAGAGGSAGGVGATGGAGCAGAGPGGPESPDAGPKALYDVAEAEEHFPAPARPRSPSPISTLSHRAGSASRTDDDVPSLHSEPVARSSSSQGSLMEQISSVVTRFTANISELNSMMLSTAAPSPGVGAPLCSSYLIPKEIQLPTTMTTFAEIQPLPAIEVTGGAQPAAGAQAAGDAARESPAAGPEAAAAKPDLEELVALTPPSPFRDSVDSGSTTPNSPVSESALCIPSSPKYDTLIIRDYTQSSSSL

Row | Compound | Emax (%) | pEC50 | Emax [%] | EC50 [nM]
1 | O=C(c1cnc2ccccc2n1)N1CCc2nc(COc3ccccc3)oc2C1 [Example B93] | 52 | 5.73 |  | 
2 | O=C(c1ccc(F)cc1)N1CCc2nc(COc3ccncc3)oc2C1 [Example B73] | 73 | 5.78 |  | 
3 | O=C(c1ccc(C(F)(F)F)o1)N1CCc2nc(COc3ccccc3)oc2C1 [Example B122] | 68 | 6.67 |  | 
4 | O=C(c1cnn[nH]1)N1CCc2nc(COc3ccccc3)oc2C1 [Example B125] | 45 | <5 |  | 
5 | Cc1ccccc1OCc1nc2c(o1)CN(C(=O)c1ccc(F)cc1)CC2 [Example B37] |  |  | 57 | 2400
6 | COCc1ccc(C(=O)N2CCc3nc(COc4ccccc4)oc3C2)o1 [Example B104] |  |  | 62 | > 10000
7 | O=C(c1n[nH]c2ncccc12)N1CCc2nc(COc3ccccc3)oc2C1 [Example B147] |  |  | 74 | 363
8 | O=C(c1ccc(F)c(F)c1)N1CCc2nc(COc3cccc(F)c3)oc2C1 [Example B29] | 75 | 6.62 |  | 
9 | O=C(c1ccc(F)cc1)N1CCc2nc(/C=C/c3ccccc3)oc2CC1 [Example B31, 6-(4-fluorobenzoyl)-5,6,7,8-tetrahydro-2-[(E)-2-phenylethenyl]-4H-oxazolo[4,5-d]azepine] |  |  | 47 | 1820
10 | O=C(c1cccc(F)c1F)N1CCc2nc(COc3ccccc3)oc2C1 [Example B15] | 74 | 6.43 |  | 
11 | O=C(C1CC1)N1CCc2nc(COc3ccccc3)oc2C1 [Example B32] |  |  | 39 | 3020
12 | O=C(CCc1ccccc1)N1CCc2nc(COc3ccccc3)oc2C1 [Example B64] |  |  | 59 | 813
13 | O=C(c1ccc[nH]1)N1CCc2nc(COc3ccccc3)oc2C1 [Example B58] |  |  | 31 | 603
14 | O=C(c1ccc(S(F)(F)(F)(F)F)cc1)N1CCc2nc(COc3ccccc3)oc2C1 [Example B52] | 51 | 5.24 |  | 
15 | Cc1ncccc1C(=O)N1CCc2nc(COc3ccccc3)oc2C1 [Example B41] |  |  | 50 | 6030
16 | O=C(c1ccc(F)cc1)N1CCc2nc(/C=C/c3ccccc3)oc2C1 [Example B14] |  |  | 48 | 1550
17 | O=C(c1ncc[nH]1)N1CCc2nc(COc3ccccc3)oc2C1 [Example B153] |  |  | 32 | > 30200
18 | O=C(Cc1c[nH]cn1)N1CCc2nc(COc3ccccc3)oc2C1.O=C(O)C(F)(F)F [Example B155] | 30 | <4.52 |  | 
19 | N#Cc1ccccc1C(=O)N1CCc2nc(COc3ccccc3)oc2C1 [Example B46] |  |  | 63 | 1620
20 | O=C(Cc1ccc(F)cc1)N1CCc2nc(COc3ccccc3)oc2C1 [Example B51] | 61 | 5.92 |  | 
21 | O=C(c1cccc(F)c1F)N1CCc2nc(COc3cccc(F)c3)oc2C1 [Example B28] | 72 | 6.24 |  | 
22 | O=C(c1ccc(Br)o1)N1CCc2nc(COc3ccccc3)oc2C1 [Example B106] |  |  | 61 | 85.1
23 | O=C(c1ccc(F)cn1)N1CCc2nc(COc3cccc(F)c3)oc2C1 [Example B45] | 66 | 5.51 |  | 
24 | O=C(c1cc(F)cc(F)c1)N1CCc2nc(COc3ccccc3)oc2C1 [Example B3, 5-[(3,5-difluorophenyl)carbonyl]-2-(phenoxymethyl)-4,5,6,7-tetrahydro[1,3]oxazolo[5,4-c]pyridine] |  |  | 47 | 132
25 | O=C(c1coc2ccccc12)N1CCc2nc(COc3ccccc3)oc2C1 [Example B146] |  |  | 61 | 407
26 | CC(Oc1ccccc1)C(=O)N1CCc2nc(COc3ccccc3)oc2C1 (stereo not drawn) [Example B81] |  |  | 63 | 1910
27 | CC(=O)N1CCc2nc(COc3ccccc3)oc2C1 [Example B24] |  |  | 53 | > 10000
